# Patent publication US20220241412A1, “COMBINATION THERAPIES USING CDK INHIBITORS” (Pfizer Inc., priority 2019, published 2022)
# Key:
# Assay type in all cases: in vivo
# 4T1 tumor cells = assay: 4T1 syngeneic mouse tumor model, PF-06873600 with checkpoint antibodies (Example 7)
# Experimental: 4T1 cells were obtained from American Type Culture Collection (ATCC) and cultured in Roswell Park Memorial Institute (RPMI1640) supplemented with 10% fetal bovine serum (FBS). All cells were maintained in a humidified incubator at 37° C. with 5% carbon dioxide (CO2). Female C57/BL6 mice were obtained from Jackson Laboratories at 8 weeks of age. To generate the syngeneic model, 30,000 4T1 tumor cells were subcutaneously implanted into the right flank of […]. Tumor bearing mice were randomized into four treatment groups based on average tumor sizes of approximately 70 mm^3 per group. Study groups included vehicle, 30 mg/kg PF-06873600 (CDK 2/4/6 inhibitor) twice daily by oral gavage, combination of 10 mg/kg anti-PD-1 antibody (PF-06937004) with 5 mg/kg anti-OX40 antibody (PF-07201252) and with 3 mg/kg anti-4-1BB antibody (PF-07218859) all administered by IP injection, and the combination of PF-06873600, anti-PD-1 antibody, anti-OX40 antibody and anti-41-BB antibody dosed as described in the cohorts above. […]
# (§1) Tumor volumes were measured three times a week. Tumor volume was calculated based on two-dimensional caliper measurement with cubic millimeter volume calculated using the formula (length×width2)×0.5. […] Statistical significance determined using the Holm-Sidak method, with alpha=0.05.
# MC38 tumor cells [1] = assay: MC38 syngeneic mouse tumor model, PF-06873600 with checkpoint antibodies (Example 2); settings: for tumor growth inhibition (in words): MC38 model, day 27 post-treatment initiation; for CR % on day 27: complete response; for CR % on day 27 / TGI % on day 27: day 27, s.c. MC38 tumors in female C57/BL6 mice, doses as in Table 10; for TGI % on day 27: tumor growth inhibition
# Experimental: MC38 cells were obtained from American Type Culture Collection (ATCC) and cultured in Roswell Park Memorial Institute (RPMI1640) supplemented with 10% fetal bovine serum (FBS). All cells were maintained in a humidified incubator at 37° C. with 5% carbon dioxide (CO2). Female C57/BL6 mice were obtained from Jackson Laboratories at 8 weeks of age. To generate the syngeneic model, 0.5 million MC38 tumor cells were subcutaneously implanted into the right flank of female C57/BL6 mice. Tumor bearing mice were randomized into nine treatment groups based on average tumor sizes of approximately 70 mm^3 per group, on Day 9 post tumor cell implantation. Study groups included vehicle, 30 mg/kg PF-06873600 (CDK 2/4/6 inhibitor) twice daily by oral gavage, avelumab (anti-PD-L1 antibody, PF-06834635) administered by intraperitoneal (IP) injection, 10 mg/kg, combination of avelumab administered at 10 mg/kg with anti-OX40 antibody (PF-07201252) administered at 5 mg/kg by IP injection, combination of anti-PD-L1 antibody administered at 10 mg/kg with anti-4-1BB antibody (PF-07218859) administered at 3 mg/kg by IP injection, combination of anti-PD-L1 antibody as described above with PF-06873600 administered at 30mg/kg twice daily by oral gavage, combination of anti-PD-L1 antibody and anti-OX40 antibody as described above with PF-06873600 administered at 30 mg/kg twice daily by oral gavage, combination of anti-PD-L1 antibody with anti-4-1BB antibody as described above with PF-06873600 administered at 30mg/kg twice daily by oral gavage and combination of anti-PD-L1 antibody, anti-OX40 antibody and anti-41-BB antibody as described above with PF-06873600 administered at 30 mg/kg twice daily by oral gavage. All antibodies were administered as three doses; one every three days after the study initiation. All antibody formulations are phosphate buffered saline based while PF-06873600 was administered in a 0.5% methocel/Tween suspension.
# Tumor volumes were measured three times a week. Tumor volume was calculated based on two-dimensional caliper measurement with cubic millimeter volume calculated using the formula (length×width2)×0.5. Mice were sacrificed when the tumor volumes reached 2000 mm^3, which was the survival endpoint for this study. Survival curves were plotted using GraphPad Prism 7 software. Statistical significance determined using the Holm-Sidak method, with alpha=0.05.
# MC38 tumor cells [2] = assay: MC38 syngeneic mouse tumor model, palbociclib with checkpoint antibodies (Example 1)
# Experimental: MC38 cells were obtained from American Type Culture Collection (ATCC) and cultured in Roswell Park Memorial Institute (RPMI1640) supplemented with 10% fetal bovine serum (FBS). All cells were maintained in a humidified incubator at 37° C. with 5% carbon dioxide (CO2). Female C57/BL6 mice were obtained from Jackson Laboratories at 8 weeks of age. To generate the syngeneic model, 0.5 million MC38 tumor cells were subcutaneously implanted into the right flank of female C57/BL6 mice. Tumor bearing mice were randomized into four treatment groups based on average tumor sizes of approximately 70 mm^3 per group, on Day 9 post tumor cell implantation. […]
# as §1
compound,measurement,setting,value
"C[C@@]1(O)CCC[C@H]1n1c(=O)c(C(F)F)cc2cnc(NC3CCN(S(C)(=O)=O)CC3)nc21 [PF-06873600, 6-(difluoromethyl)-8-((1R,2R)-2-hydroxy-2-methylcyclopentyl)-2-(1-(methylsulfonyl)piperidin-4-ylamino)pyrido[2,3-d]pyrimidin-7(8H)-one]",tumor growth inhibition (in words),"4T1 tumor cells; 4T1 model, day 18 post-treatment initiation",significantly inhibited tumor growth
same,TGI % on day 27,"4T1 tumor cells; tumor growth inhibition, s.c. 4T1 tumors in female C57/BL6 mice, doses as in Table 16",66%
same,tumor growth inhibition (in words),MC38 tumor cells [1],did not significantly inhibit tumor growth
same,CR % on day 27,MC38 tumor cells [1],0%
same,TGI % on day 27,MC38 tumor cells [1],−7%
"CC(=O)c1c(C)c2cnc(Nc3ccc(N4CCNCC4)cn3)nc2n(C2CCCC2)c1=O [palbociclib, 6-acetyl-8-cyclopentyl-5-methyl-2-(5-piperazin-1-yl-pyridin-2-ylamino)-8H-pyrido[2,3-d]pyrimidin-7-one]",tumor growth inhibition (in words),"MC38 tumor cells [2]; MC38 model, day 27 post-treatment initiation",did not significantly inhibit tumor growth
same,TGI % on day 27,"MC38 tumor cells [2]; tumor growth inhibition, day 27, s.c. MC38 tumors in female C57/BL6 mice, doses as in Table 8",29%
"PF-06834635: avelumab (anti-PD-L1 antibody, PF-06834635)",tumor growth inhibition (in words),MC38 tumor cells [1],did not significantly inhibit tumor growth
same,CR % on day 27,MC38 tumor cells [1],0%
same,TGI % on day 27,MC38 tumor cells [1],9%
